Patent publication US10399985B2, “(Hetero)aryl imidazoles/pyrazoles for treatment of neurological disorders” (Hoffmann-La Roche Inc., priority 2014, dated 2019)

Test system: rats
Assay: not given
Details: sub-chronic treatment with PCP; cited from earlier work
For `COc1ccc(Cc2nccc3cc(OC)c(OC)cc23)cc1OC` [papaverine, Papaverine], the “deficits in the extra-dimensional shift learning” value is listed as “attenuate the deficits”.

Biological target: human PDE10A (Homo sapiens (Human), UniProt Q9Y233)
Sequence (Q9Y233 other isoform, or with tags, fused parts or gaps): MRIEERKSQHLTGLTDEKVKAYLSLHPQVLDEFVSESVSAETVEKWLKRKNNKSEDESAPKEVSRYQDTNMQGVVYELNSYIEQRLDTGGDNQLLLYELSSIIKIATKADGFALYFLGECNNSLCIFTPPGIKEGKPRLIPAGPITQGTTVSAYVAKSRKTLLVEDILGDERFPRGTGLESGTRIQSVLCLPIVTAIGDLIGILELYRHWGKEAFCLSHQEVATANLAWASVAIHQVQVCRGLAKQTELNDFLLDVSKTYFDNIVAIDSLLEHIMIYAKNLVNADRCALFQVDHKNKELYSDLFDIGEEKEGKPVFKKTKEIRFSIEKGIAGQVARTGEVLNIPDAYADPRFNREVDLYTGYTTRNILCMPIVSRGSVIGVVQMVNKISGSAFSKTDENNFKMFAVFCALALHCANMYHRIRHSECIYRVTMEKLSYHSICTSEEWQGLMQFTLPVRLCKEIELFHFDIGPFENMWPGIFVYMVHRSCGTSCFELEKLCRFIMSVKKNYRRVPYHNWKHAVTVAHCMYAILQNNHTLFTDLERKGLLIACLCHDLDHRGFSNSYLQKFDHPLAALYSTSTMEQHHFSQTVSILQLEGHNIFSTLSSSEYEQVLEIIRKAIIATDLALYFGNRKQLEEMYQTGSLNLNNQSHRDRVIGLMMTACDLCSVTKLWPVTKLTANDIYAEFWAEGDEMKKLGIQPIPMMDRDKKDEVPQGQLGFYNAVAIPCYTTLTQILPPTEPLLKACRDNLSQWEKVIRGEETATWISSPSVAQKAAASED
Assay: human PDE10A full length Scintillation Proximity Assay (SPA)
Type: biochemical
Details: 50 nM cGMP and 50 nM [3H]-cGMP, 20 minutes at room temperature
Method: The following test was carried out in order to determine the activity of the compounds of the present invention. PDE10 activity of the compounds of the present invention was determined using a Scintillation Proximity Assay (SPA)-based method similar to the one previously described (Fawcett, L. et al., ProcNatl Acad Sci USA (2000) 97(7):3702-3707).
The human PDE10A full length assay was performed in 96-well micro titer plates. The reaction mixture of 50 μl contained 20 mM HEPES pH=7.5/10 mM MgCl2/0.05 mg/ml BSA (Sigma cat. # A-7906), 50 nM cGMP (Sigma, cat. # G6129) and 50 nM [3H]-cGMP (GE Healthcare, cat. # TRK392 S. A. 13.2 Ci/mmol), 3.75 ng/well PDE10A enzyme (Enzo Life Science, Lausen, Switzerland cat # SE-534) with or without a specific test compound. A range of concentrations of the potential inhibitor was used to generate data for calculating the concentration of inhibitor resulting in 50% of the effect (e.g. IC50, the concentration of the competitor inhibiting PDE10A activity by 50%). Non-specific activity was tested without the enzyme. The reaction was initiated by the addition of the substrate solution (cGMP and [3H]-cGMP) and allowed to progress for 20 minutes at room temperature. The reaction was terminated by adding 25 μl of YSi-SPA scintillation beads (GE Healthcare, cat. # RPNQ0150) in 18 mM zinc sulphate solution (stop reagent). After 1 h under shaking, the plate was centrifuged one minute at 170 g to allow beads to settle. Afterwards, radioactive counts were measured on a Perkin Elmer TopCount Scintillation plate reader.
With `Cc1c(CO)nc2ccc(OCc3nc(-c4ccccc4)cn3C)nn12` [Example 42, (3-Methyl-6-((1-methyl-4-phenyl-1H-imidazol-2-yl)methoxy)imidazo[1,2-b]pyridazin-2-yl)methanol] the IC50 was 363 nM.
Molecule `Cn1cc(-c2ccccc2)nc1COc1ccc2nc(C3CC3)c(CO)n2n1` [Example 43, (2-Cyclopropyl-6-((1-methyl-4-phenyl-1H-imidazol-2-yl)methoxy)imidazo[1,2-b]pyridazin-3-yl)methanol] has an IC50 of 167 nM.
For `Cn1cc(-c2ccccc2)nc1COc1ccc2nc3c(n2n1)CCC3` [Example 44, 2-[(1-Methyl-4-phenyl-imidazol-2-yl)methoxy]-7,8-dihydro-6H-cyclopenta[1,2]imidazo[3,4-c]pyridazine], the IC50 was 47 nM.
`Cn1cc(-c2ccccc2)nc1COc1ccc2nc(C(F)(F)F)cn2n1` [Example 45, 6-((1-Methyl-4-phenyl-1H-imidazol-2-yl)methoxy)-2-(trifluoromethyl)imidazo[1,2-b]pyridazine] showed an IC50 of 328 nM.
Molecule `Cc1nn2ccc(OCc3nc(-c4ccccc4)cn3C)nc2c1C` [Example 46, 2,3-Dimethyl-5-((1-methyl-4-phenyl-1H-imidazol-2-yl)methoxy)pyrazolo[1,5-a]pyrimidine] has an IC50 of 3.4 nM.
